Assay results from US8415469B2, “Compounds and methods for kinase modulation, and indications therefor” (Plexxikon Inc., priority 2005, dated 2013).

Experiments:
Type in all cases: biochemical
[1] = target: T1, Kit (Homo sapiens, UniProt P10721); test: AlphaScreen kinase assay, Kit; conditions: read-out: IC50, activity toward kinase Kit
T1 construct: P1332.N6 BI PTP KIT M552-K948-X COD; His6 (N); made in house; host or cells: E. coli (PTP1B co-expressed)

[2] = target: MAP4K4 (Homo sapiens, UniProt O95819); test: AlphaScreen kinase assay, MAP4K4; conditions: read-out: IC50, activity toward kinase MAP4K4
Sequence of MAP4K4 (O95819 whole entry): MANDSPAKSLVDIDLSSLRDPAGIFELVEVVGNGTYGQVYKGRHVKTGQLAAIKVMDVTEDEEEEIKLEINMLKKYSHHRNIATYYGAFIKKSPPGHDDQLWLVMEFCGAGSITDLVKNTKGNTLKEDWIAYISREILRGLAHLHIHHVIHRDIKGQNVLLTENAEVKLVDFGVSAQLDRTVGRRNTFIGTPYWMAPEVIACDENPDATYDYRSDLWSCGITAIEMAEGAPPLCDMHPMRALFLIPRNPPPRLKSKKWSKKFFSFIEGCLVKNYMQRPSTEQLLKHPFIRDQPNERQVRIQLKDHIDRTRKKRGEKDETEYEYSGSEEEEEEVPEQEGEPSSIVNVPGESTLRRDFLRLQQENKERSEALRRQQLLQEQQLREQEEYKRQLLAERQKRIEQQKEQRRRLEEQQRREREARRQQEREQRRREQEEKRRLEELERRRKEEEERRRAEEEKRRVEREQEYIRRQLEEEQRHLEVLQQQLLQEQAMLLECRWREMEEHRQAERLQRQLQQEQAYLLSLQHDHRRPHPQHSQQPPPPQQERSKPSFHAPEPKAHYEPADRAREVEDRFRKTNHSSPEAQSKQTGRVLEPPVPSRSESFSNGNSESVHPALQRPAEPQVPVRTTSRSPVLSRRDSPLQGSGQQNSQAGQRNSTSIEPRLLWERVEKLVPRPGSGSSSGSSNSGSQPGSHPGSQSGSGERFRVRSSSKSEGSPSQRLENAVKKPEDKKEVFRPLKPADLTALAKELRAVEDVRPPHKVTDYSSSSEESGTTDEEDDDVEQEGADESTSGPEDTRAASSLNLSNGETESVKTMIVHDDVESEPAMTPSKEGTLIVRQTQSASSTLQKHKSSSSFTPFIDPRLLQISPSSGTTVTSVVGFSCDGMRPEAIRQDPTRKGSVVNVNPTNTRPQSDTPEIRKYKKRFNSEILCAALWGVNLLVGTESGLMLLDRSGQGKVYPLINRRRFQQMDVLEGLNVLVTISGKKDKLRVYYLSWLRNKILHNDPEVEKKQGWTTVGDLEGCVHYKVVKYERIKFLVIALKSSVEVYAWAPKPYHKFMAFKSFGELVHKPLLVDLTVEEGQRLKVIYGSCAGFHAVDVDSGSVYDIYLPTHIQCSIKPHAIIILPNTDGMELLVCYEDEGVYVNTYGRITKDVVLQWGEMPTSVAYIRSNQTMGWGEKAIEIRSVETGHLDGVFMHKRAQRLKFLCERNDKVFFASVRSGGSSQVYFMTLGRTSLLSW

[3] = target: T2, Pyk2 (Homo sapiens, UniProt Q14289); test: AlphaScreen kinase assay, Pyk2; conditions: read-out: IC50, activity toward kinase Pyk2
T2 construct: purchased Upstate Biotechnology

[4] = target: T3, Jnk2 (Homo sapiens, UniProt P45984); test: AlphaScreen kinase assay, Jnk2; conditions: read-out: IC50, activity toward kinase Jnk2
T3 construct: purchased Roche Protein Expression Group (Indianapolis, IN)
T3 sequence (P45984 whole entry): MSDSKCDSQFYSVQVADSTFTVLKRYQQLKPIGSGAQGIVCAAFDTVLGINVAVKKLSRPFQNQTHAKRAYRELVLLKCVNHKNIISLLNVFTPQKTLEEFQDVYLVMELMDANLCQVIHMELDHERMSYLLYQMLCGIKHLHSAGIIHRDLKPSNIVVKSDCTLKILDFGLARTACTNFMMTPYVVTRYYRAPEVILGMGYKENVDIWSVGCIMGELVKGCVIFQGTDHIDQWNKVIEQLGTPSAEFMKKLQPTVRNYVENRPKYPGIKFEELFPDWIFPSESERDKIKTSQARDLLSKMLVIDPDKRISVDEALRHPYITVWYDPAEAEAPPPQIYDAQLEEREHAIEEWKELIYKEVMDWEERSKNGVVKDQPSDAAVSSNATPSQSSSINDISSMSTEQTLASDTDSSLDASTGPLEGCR
Summary of the method: (§1)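 Kinase activity was measured as phosphorylation of a biotinylated peptide, detected with streptavidin donor and phospho-antibody acceptor beads. Compounds, from 20 mM DMSO stocks, were tested at eight concentrations in 1:3 serial dilution.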

[5] = target: T4, Fak (Homo sapiens, UniProt Q05397); test: AlphaScreen kinase assay, Fak; conditions: read-out: IC50, activity toward kinase Fak
T4 construct: P1358.pFastBacHtb FAK S411-Q686-X; His6 with pFastBacHTb leader (TEV site) (N); made in house; host or cells: Sf9 (baculovirus)

[6] = target: T5, Jnk1 (Homo sapiens, UniProt P45983); test: AlphaScreen kinase assay, Jnk1; conditions: read-out: IC50, activity toward kinase Jnk1
T5 construct: purchased Upstate Biotechnology
T5 sequence (P45983 whole entry): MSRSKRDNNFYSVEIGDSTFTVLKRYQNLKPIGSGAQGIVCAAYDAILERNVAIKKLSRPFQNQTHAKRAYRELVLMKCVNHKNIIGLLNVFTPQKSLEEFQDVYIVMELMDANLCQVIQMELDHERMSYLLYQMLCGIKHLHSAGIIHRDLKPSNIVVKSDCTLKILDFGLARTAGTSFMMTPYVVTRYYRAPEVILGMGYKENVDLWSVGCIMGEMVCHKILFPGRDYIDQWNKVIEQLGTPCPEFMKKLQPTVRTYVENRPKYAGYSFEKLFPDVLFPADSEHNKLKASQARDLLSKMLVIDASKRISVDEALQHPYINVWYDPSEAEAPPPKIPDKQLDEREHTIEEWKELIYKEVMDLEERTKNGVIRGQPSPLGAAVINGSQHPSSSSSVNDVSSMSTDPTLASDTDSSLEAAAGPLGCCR

[7] = target: T6, B-Raf (Homo sapiens, UniProt P15056); test: AlphaScreen kinase assay, B-Raf; conditions: read-out: IC50, activity toward kinase B-Raf
T6 construct: purchased Upstate Biotechnology
T6 sequence (P15056 whole entry): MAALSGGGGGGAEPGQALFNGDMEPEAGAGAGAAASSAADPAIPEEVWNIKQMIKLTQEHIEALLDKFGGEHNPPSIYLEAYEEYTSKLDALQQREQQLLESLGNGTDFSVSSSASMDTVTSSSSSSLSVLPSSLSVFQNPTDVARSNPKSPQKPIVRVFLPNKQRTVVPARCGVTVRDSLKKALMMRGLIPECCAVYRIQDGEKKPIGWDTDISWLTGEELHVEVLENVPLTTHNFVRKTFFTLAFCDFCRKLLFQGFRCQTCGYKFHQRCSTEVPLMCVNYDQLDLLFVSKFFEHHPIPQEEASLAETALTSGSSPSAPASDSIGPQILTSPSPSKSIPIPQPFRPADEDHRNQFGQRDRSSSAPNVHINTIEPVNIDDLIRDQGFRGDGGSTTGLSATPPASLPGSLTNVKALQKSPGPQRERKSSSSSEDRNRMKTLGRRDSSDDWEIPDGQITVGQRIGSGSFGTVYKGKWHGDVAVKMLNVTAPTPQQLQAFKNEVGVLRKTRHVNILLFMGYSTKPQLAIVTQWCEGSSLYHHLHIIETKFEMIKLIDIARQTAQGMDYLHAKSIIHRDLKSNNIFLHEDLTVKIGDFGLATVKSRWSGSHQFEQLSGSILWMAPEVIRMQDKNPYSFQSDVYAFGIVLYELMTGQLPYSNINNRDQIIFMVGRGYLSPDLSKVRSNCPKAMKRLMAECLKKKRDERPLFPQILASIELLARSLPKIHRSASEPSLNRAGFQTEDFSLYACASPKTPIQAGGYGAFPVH

[8] = target: T7, c-Raf-1 (Homo sapiens, UniProt P04049); test: AlphaScreen kinase assay, c-Raf-1; conditions: read-out: IC50, activity toward kinase c-Raf-1
T7 construct: purchased Upstate Biotechnology

[9] = target: T8, B-Raf V600E (Homo sapiens, UniProt P15056, V600E); test: AlphaScreen kinase assay, B-Raf V600E; conditions: read-out: IC50, activity toward kinase B-Raf V600E
T8 construct: P4254. pFastBacBD-CDC37 BRAF D437-K722-X, V600E; His6 with pFastBac HT leader (TEV site) (N); made in house; host or cells: Sf9 (baculovirus; chaperone CDC37 co-expressed)
T8 sequence (P15056 with tags, fused parts or gaps V600E): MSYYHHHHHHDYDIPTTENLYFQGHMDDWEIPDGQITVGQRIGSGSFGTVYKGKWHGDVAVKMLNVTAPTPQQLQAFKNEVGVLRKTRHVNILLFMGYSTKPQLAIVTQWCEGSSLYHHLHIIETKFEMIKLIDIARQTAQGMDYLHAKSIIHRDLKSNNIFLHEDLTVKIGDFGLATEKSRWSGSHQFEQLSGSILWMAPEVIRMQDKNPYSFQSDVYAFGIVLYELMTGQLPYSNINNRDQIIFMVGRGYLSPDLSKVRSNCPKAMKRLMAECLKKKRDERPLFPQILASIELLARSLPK

[10] = target: T9, FGFR1 (Homo sapiens, UniProt P11362, C488A/C584S); test: AlphaScreen kinase assay, FGFR1; conditions: read-out: IC50, activity toward kinase FGFR
T9 construct: P1351.pET N6 BI-PTP FGFR A458-E765-X C488A, C584S; made in house; host or cells: E. coli (PTP1B co-expressed)
T9 sequence (P11362 458-765 C488A/C584S): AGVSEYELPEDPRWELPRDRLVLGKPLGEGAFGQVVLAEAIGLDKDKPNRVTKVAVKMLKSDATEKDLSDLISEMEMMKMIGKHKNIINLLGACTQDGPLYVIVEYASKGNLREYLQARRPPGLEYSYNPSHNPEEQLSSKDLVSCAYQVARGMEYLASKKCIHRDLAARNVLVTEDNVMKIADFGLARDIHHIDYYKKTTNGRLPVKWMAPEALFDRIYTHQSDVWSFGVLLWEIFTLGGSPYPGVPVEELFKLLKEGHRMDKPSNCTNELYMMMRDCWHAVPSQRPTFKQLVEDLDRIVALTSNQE

[11] = target: T10, Flt1 (Homo sapiens, UniProt P17948); test: AlphaScreen kinase assay, Flt1; conditions: read-out: IC50, activity toward kinase Flt1
T10 construct: P1826.pETN6 BI-PTP FLT1 M799-D1165-X WT; His6 (N); made in house; host or cells: E. coli (PTP1B co-expressed)
T10 sequence (P17948 with tags, fused parts or gaps): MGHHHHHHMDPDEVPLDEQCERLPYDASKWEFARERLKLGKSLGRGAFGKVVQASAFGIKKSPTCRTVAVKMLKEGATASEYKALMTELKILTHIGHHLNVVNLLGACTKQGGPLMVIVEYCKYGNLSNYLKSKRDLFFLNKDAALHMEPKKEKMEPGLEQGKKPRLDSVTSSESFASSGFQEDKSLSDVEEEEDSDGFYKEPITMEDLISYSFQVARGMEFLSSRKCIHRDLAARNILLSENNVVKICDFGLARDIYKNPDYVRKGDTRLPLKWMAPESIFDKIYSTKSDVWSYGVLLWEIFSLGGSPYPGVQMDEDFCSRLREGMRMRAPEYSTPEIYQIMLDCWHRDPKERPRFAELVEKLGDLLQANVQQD

[12] = target: T11, Met (Homo sapiens, UniProt P08581); test: AlphaScreen kinase assay, Met; conditions: read-out: IC50, activity toward kinase Met
T11 construct: P1818.pETN6 BI-PTP MET G1056-G1364-X WT; His6 (N); made in house; host or cells: E. coli (PTP1B co-expressed)
Excerpt: AlphaScreen assay was used to screen additional kinases. The assay is similarly dependent on the phosphorylation of a peptide substrate. In this assay, an antibody that recognizes phosphorylated substrate is bound to an acceptor bead. The peptide substrate is attached to biotin, which binds to a donor head that contains streptavidin. Thus phosphorylated substrate is bound by antibody and streptavidin, bringing the donor and acceptor heads into close proximity when kinase is not inhibited. The donor produces singlet oxygen which results in emission from the acceptor when they are in close proximity. Conversely, when kinase is inhibited, the donor and acceptor beads are not associated and the emission from the acceptor is reduced.
AlphaScreen assays were done using compounds dissolved in DMSO to a concentration of 20 mM. The compounds were diluted accordingly to the desired final concentrations in each sample well, using 1:3 serial dilution for a total of 8 concentration points.

[13] = target: T12, Fms (Homo sapiens, UniProt P07333); test: AlphaScreen kinase assay, Fms; conditions: read-out: IC50, activity toward kinase Fms
T12 construct: purchased Upstate Biotechnology
T12 sequence (P07333 20-972): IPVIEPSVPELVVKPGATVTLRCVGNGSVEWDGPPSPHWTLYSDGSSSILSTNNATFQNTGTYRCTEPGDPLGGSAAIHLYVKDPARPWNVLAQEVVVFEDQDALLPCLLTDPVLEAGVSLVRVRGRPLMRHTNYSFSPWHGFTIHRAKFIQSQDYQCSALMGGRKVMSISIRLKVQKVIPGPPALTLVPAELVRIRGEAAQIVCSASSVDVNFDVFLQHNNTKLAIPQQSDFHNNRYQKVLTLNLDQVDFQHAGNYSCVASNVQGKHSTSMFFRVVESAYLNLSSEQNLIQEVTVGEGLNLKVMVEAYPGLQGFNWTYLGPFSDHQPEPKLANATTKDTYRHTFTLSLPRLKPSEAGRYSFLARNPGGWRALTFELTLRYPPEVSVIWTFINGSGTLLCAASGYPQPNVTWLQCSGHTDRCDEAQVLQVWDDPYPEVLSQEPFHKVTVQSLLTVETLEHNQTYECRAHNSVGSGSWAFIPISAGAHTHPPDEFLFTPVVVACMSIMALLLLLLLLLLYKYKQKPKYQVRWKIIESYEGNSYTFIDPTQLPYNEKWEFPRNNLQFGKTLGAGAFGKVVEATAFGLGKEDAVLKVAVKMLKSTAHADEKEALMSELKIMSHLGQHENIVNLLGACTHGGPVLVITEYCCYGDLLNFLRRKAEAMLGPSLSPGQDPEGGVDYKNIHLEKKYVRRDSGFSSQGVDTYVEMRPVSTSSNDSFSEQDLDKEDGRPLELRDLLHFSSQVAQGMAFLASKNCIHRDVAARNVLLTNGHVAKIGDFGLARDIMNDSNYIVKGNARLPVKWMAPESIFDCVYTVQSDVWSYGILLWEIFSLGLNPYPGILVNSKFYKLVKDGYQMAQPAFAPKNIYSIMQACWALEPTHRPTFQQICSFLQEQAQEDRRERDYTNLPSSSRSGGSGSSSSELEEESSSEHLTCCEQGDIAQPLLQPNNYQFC

[14] = target: T13, Src (Homo sapiens, UniProt P12931); test: AlphaScreen kinase assay, Src; conditions: read-out: IC50, activity toward kinase Src
T13 construct: P1144. pET-N6 BI-PTP SRC V86-L536-X; made in house

[15] = target: T14, Stk6 (Homo sapiens, UniProt O14965); test: Z'-Lyte FRET kinase assay (Invitrogen), Stk6; conditions: read-out: IC50, activity toward kinase Stk6
T14 construct: purchased Invitrogen (Carlsbad, Calif.), screening service
T14 sequence (O14965 1-403): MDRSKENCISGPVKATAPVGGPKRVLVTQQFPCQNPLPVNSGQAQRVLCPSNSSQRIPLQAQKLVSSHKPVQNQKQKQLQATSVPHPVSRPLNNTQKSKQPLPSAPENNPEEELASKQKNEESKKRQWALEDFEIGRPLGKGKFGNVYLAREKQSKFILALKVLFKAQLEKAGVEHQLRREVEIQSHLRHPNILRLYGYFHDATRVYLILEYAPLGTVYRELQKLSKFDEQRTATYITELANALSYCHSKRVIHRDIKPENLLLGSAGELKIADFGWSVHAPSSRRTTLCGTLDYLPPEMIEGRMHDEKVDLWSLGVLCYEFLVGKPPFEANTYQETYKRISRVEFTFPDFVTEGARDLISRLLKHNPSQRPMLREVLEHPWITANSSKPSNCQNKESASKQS

[16] = target: T15, Jnk3 (Homo sapiens, UniProt P53779); test: AlphaScreen kinase assay, Jnk3; conditions: read-out: IC50, activity toward kinase Jnk3
T15 construct: purchased Upstate Biotechnology

[17] = target: T16, Ret (Homo sapiens, UniProt P07949); test: AlphaScreen kinase assay, Ret; conditions: read-out: IC50, activity toward kinase Ret
T16 construct: P1378.pET-SF BI-PTP RET H661-R1012 HIS; made in house
T16 sequence (P07949 with tags, fused parts or gaps): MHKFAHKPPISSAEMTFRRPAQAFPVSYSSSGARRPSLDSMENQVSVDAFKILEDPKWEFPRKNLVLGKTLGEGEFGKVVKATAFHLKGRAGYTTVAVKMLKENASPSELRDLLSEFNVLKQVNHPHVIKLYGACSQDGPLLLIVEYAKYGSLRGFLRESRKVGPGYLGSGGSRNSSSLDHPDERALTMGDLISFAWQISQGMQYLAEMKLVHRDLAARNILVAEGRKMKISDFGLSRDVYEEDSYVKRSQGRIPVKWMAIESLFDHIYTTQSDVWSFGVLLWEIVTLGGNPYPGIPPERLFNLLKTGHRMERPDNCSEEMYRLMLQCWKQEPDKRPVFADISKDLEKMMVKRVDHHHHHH

[18] = target: T17, Zap70 (Homo sapiens, UniProt P43403); test: AlphaScreen kinase assay, Zap70; conditions: read-out: IC50, activity toward kinase Zap70
T17 construct: P1868.pFastBac1 ZAP70 D327-G606 HIS, WT; His7 (HHHHHHH) (C); made in house
T17 sequence (P43403 with tags, fused parts or gaps): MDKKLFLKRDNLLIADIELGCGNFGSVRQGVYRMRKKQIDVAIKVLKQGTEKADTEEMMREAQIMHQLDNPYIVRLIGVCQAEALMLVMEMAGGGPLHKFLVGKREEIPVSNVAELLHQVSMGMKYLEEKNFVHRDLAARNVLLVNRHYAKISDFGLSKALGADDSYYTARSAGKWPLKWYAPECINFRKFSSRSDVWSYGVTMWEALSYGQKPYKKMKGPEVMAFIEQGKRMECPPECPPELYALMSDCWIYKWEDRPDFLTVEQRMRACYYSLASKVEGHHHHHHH
Summary of the method: as §1

[19] = target: T18, Kdr (Homo sapiens, UniProt P35968); test: Z'-Lyte FRET kinase assay (Invitrogen), Kdr; conditions: read-out: IC50, activity toward kinase Kdr
T18 construct: purchased Invitrogen (assay run by Invitrogen)

Measured: IC50

T1 sequence (P10721 with tags, fused parts or gaps): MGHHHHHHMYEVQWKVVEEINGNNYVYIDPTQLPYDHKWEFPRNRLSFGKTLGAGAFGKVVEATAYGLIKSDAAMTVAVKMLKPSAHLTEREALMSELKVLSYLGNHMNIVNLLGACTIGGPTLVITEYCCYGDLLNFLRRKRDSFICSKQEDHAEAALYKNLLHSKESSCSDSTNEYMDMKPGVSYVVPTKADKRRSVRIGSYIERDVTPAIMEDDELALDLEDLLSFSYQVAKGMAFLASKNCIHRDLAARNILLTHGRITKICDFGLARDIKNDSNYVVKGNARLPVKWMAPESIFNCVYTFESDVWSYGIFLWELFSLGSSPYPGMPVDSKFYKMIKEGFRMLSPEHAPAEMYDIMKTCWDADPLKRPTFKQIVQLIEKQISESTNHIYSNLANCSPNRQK

O=C(c1c(F)ccc(NS(=O)(=O)c2ccccc2)c1F)c1c[nH]c2ncc(-c3cccnc3)cc12 [Compound P-0685, N-[2,4-Difluoro-3-(5-pyridin-3-yl-1H-pyrrolo[2,3-b]pyridine-3-carbonyl)-phenyl]-benzenesulfonamide]
not listed: [15] | [16] | [17] | [18] | [19]
≤ 10 µM: all other assays above

Fc1ccc(-c2ccnc3[nH]cc(Sc4cccs4)c23)cc1 [Compound P-0419]
≤ 10 µM: [15] | [12]

O=C(c1c(F)ccc(O)c1F)c1c[nH]c2ncc(-c3cccnc3)cc12 [Compound P-0066, (2,6-Difluoro-3-hydroxy-phenyl)-(5-pyridin-3-yl-1H-pyrrolo[2,3-b]pyridin-3-yl)-methanone]
≤ 10 µM: [16] | [4] | [6] | [7] | [8] | [9] | [10] | [12] | [17]

Clc1ccc(Nc2ccnc3[nH]ccc23)cc1Cl [Compound P-0842]
≤ 10 µM: [7] | [8] | [9] | [12] | [18]

CCOc1ccccc1-c1ccnc2[nH]ccc12 [Compound P-1114]
≤ 10 µM: [5] | [12]

CS(=O)(=O)Nc1ccc(F)c(C(=O)c2c[nH]c3ncc(-c4ccccc4)cc23)c1F [Compound P-0184, N-[2,4-Difluoro-3-(5-phenyl-1H-pyrrolo[2,3-b]pyridine-3-carbonyl)-phenyl]-methanesulfonamide]
not listed: [2] | [3] | [5] | [14] | [15] | [18]
≤ 10 µM: all other assays above

CS(=O)(=O)Nc1ccc(F)c(C(=O)c2c[nH]c3ncc(-c4cccc(C(N)=O)c4)cc23)c1F [Compound P-0721, 3-[3-(2,6-Difluoro-3-methanesulfonylamino-benzoyl)-1H-pyrrolo[2,3-b]pyridin-5-yl]-benzamide]
not listed: [2] | [3] | [15] | [16] | [18] | [19]
≤ 10 µM: all other assays above

CS(=O)(=O)Nc1cccc(-c2cnc3[nH]cc(C(=O)c4c(F)ccc(OC(F)F)c4F)c3c2)c1 [Compound P-1527, N-{3-[3-(3-Difluoromethoxy-2,6-difluoro-benzoyl)-1H-pyrrolo[2,3-b]pyridin-5-yl]-phenyl}-methanesulfonamide]
≤ 10 µM: [1] | [7] | [9] | [10] | [11] | [12] | [13] | [14]

O=C(Nc1ccc(Cc2c[nH]c3ncccc23)cc1)Nc1ccc(Cl)c(C(F)(F)F)c1 [Compound P-0369]
not listed: [4] | [5] | [6] | [11] | [14] | [15] | [16] | [18]
≤ 10 µM: all other assays above

CS(=O)(=O)Nc1ccc(F)c(C(=O)c2c[nH]c3ncccc23)c1F [Compound P-0811]
≤ 10 µM: [2] | [5] | [8] | [9] | [10] | [12] | [13] | [17]
